From patent US20250296938A1, “Compounds that Interact with the Ras Superfamily for the Treatment of Cancers, Inflammatory Diseases, Rasopathies, and Fibrotic Disease” (SHY Therapeutics, LLC, priority 2018, published 2025)
Where two headings read alike, the source gives them in different places.

Key:
Test in all cases: Ras GTP binding domain inhibition assay (Cy3-GTP/Cy5-GTP competition)
KRas G12C mutant = test system: KRas G12C mutant; design: species or system human; conditions: 20 μM
Method: (§1) The following method was developed as specific assay for the following proteins: KRas wild type, KRas Q61H mutant, KRas G12C mutant, KRas G12D mutant, HRas wild type, Rac-1, and Rho-A.
(§2) • 25 mM Tris-HCl, pH 7.4 • 27 mM KCl • 137 mM NaCl • 1 mM MgCl2 • 1 mM DTT
(§3) • 50 mM Tris-HCl, pH 7.0 • 1 mM MgCl2 • 1 mM DTT
(§4) The small GTPases proteins: KRas wild type. KRas Q61H mutant, KRas G12C mutant, KRas G12D mutants, HRas wild type, Rac-1, and Rho-A were expressed as His-tagged proteins. In addition, the Guanosine nucleotide Exchange Factor (GEF) Sos protein (residues 556-1049) was expressed as a His-tagged protein. In cells, the guanine nucleotide exchange factor Sos protein promotes activation of Ras proteins by stimulating an exchange of GDP for GTP. The inclusion of Sos to the Ras GTP binding domain inhibition assay may be considered as an alternative representation of physiological cellular conditions for evaluating the inhibitory activity of some of the tested small molecules.
(§5) For the assay, all purified small GTPases proteins were diluted in Buffer-I or Buffer-II to a final concentration of 10-30 μg/mL. 200 μL of each diluted protein was added to a nickel-coated 96-well plate and incubated overnight at 4° C. Then the protein solution was discarded and 200 μL of Buffer-I or Buffer-II was added to each well in the presence of 1% DMSO. Compounds to be tested were added to the protein-coated wells at final concentration of 20 μM, and incubated for 3 hours at room temperature with and without […] of Sos added to the final hour of the incubation. When performing IC50 measurements a serial dilution of all tested concentrations was added. Then Cy3-GTP or Cy5-GTP was added to each well to a final concentration of 100 nM. The labeled GTP was incubated for 45 minutes at room temperature. Following GTP incubation, wells were washed 3× in Buffer-I or Buffer-II and 200 μL of Buffer-I or Buffer-II was added to each well. Following washes, the amount of bound labeled-GTP was measured using a SpectraMax M3 (Molecular Devices).

KRas Q61H mutant = test system: KRas Q61H mutant; design: species or system human; conditions: 20 μM
Method: as §1, §2, §3, §4, §5

KRas wild type = test system: KRas wild type; design: species or system human; conditions: 20 μM; for KRas wild type: % inh.: without SOS; for KRas wild type % inh.: without SOS (Table 7A)
Method: as §1, §2, §3, §4, §5

KRas G12D mutant = target: T1, KRas G12D mutant (Homo sapiens, UniProt P01116, G12D); conditions: 20 μM
T1 construct: fused on or other part: His tag, used for capture on nickel-coated plates
Method: as §1, §2, §3, §4, §5

[1] = with SOS, read-out: KRas G-12D mutant + SOS: % inh.
[2] = without SOS, read-out: KRas G12D mutant: % inh.
[3] = with SOS (Table 7A), read-out: KRas G12D mutant + SOS: % inh.
[4] = without SOS (Table 7A), read-out: KRas G12D mutant: % inh.

KRas G12C mutant + SOS: % inh. (KRas G12C mutant; with SOS) | KRas G12C mutant: % inh. (KRas G12C mutant; without SOS) | KRas Q61H mutant + SOS: % inh. (KRas Q61H mutant; with SOS) | KRas Q61H mutant: % inh. (KRas Q61H mutant; without SOS) | KRas wild type + SOS: % inh. (KRas wild type; with SOS) | KRas wild type: % inh. (KRas wild type) | inhibition at 20 µM (KRas G12D mutant; [1]) [%] | inhibition at 20 µM (KRas G12D mutant; [2]) [%] | KRas G12C mutant + SOS: % inh. (KRas G12C mutant; with SOS (Table 7A)) | KRas G12C mutant: % inh. (KRas G12C mutant; without SOS (Table 7A)) | KRas Q61H mutant + SOS: % inh. (KRas Q61H mutant; with SOS (Table 7A)) | KRas Q61H mutant: % inh. (KRas Q61H mutant; without SOS (Table 7A)) | KRas wild type + SOS: % inh. (KRas wild type; with SOS (Table 7A)) | KRas wild type % inh. (KRas wild type) | inhibition at 20 µM (KRas G12D mutant; [3]) [%] | inhibition at 20 µM (KRas G12D mutant; [4]) [%] | SMILES
A (1-25% inhibition) | 0 (0% inhibition) | A (1-25% inhibition) | A (1-25% inhibition) | A (1-25% inhibition) | A (1-25% inhibition) | 1 to 25 | 1 to 25 |  |  |  |  |  |  |  |  | Oc1nc(-c2cn3cccnc3n2)nc2c(-c3ccccn3)csc12 [drawing 848]
C (51-75% inhibition) | B (26-50% inhibition) | D (76-100% inhibition) | C (51-75% inhibition) | C (51-75% inhibition) | 0 (0% inhibition) | 26 to 50 | 26 to 50 |  |  |  |  |  |  |  |  | COCC1CCN(c2nc(-c3nccn3C)nc3sc(-c4ccn(C)n4)c(-c4ccccc4)c23)C1 (stereo not shown) [drawing 858]
 |  |  |  |  |  |  |  | C (51-75% inhibition) | A (1-25% inhibition) | C (51-75% inhibition) | B (26-50% inhibition) | C (51-75% inhibition) | B (26-50% inhibition) | 51 to 75 | 1 to 25 | COC1CCN(c2nc(-c3nccn3C)nc3sc(-c4cccc(O)c4F)c(-c4ccccc4)c23)C1 (stereo not shown) [drawing 890]
 |  |  |  |  |  |  |  | C (51-75% inhibition) | D (76-100% inhibition) | C (51-75% inhibition) | C (51-75% inhibition) | C (51-75% inhibition) | C (51-75% inhibition) | 51 to 75 | 76 to 100 | COc1cccc(-c2sc3nc(-c4nccn4C)nc(NC4CCC(OC)C4)c3c2C)c1F (stereo not shown) [drawing 893]
 |  |  |  |  |  |  |  | C (51-75% inhibition) | C (51-75% inhibition) | D (76-100% inhibition) | D (76-100% inhibition) | C (51-75% inhibition) | D (76-100% inhibition) | 51 to 75 | 76 to 100 | CO[C@H]1CC[C@@H](Nc2nc(-c3nccn3C)nc3sc(C(=O)N4CCOCC4)c(-c4ccccc4)c23)C1 [drawing 927]
 |  |  |  |  |  |  |  | C (51-75% inhibition) | D (76-100% inhibition) | C (51-75% inhibition) | D (76-100% inhibition) | C (51-75% inhibition) | C (51-75% inhibition) | 51 to 75 | 51 to 75 | CO[C@H]1C[C@@H](Nc2nc(-c3nccn3C)nc3sc(C(=O)N4CCOCC4)c(-c4ccccc4)c23)C1 [drawing 922]
 |  |  |  |  |  |  |  | C (51-75% inhibition) | D (76-100% inhibition) | D (76-100% inhibition) | C (51-75% inhibition) | D (76-100% inhibition) | D (76-100% inhibition) | 76 to 100 | 76 to 100 | Cc1c(-c2ccn(C)n2)sc2nc(-c3nccn3C)nc(NCCOC(=O)N(C)C)c12 [drawing 918]
D (76-100% inhibition) | C (51-75% inhibition) | C (51-75% inhibition) | C (51-75% inhibition) | C (51-75% inhibition) | D (76-100% inhibition) | 51 to 75 | 76 to 100 |  |  |  |  |  |  |  |  | COCCn1ccnc1-c1nc(O)c2scc(-c3ccccn3)c2n1 [drawing 852]
D (76-100% inhibition) | B (26-50% inhibition) | D (76-100% inhibition) | C (51-75% inhibition) | D (76-100% inhibition) | B (26-50% inhibition) | 51 to 75 | 51 to 75 |  |  |  |  |  |  |  |  | COCC(C)Nc1nc(-c2nccn2C)nc2sc(-c3cccc(OC)c3)c(-c3cscn3)c12 (stereo not shown) [drawing 855]

Further lines, the compound ahead of its results:

SMILES | KRas G12C mutant + SOS: % inh. (KRas G12C mutant; with SOS) | KRas G12C mutant: % inh. (KRas G12C mutant; without SOS) | KRas Q61H mutant + SOS: % inh. (KRas Q61H mutant; with SOS) | KRas Q61H mutant: % inh. (KRas Q61H mutant; without SOS) | KRas wild type + SOS: % inh. (KRas wild type; with SOS) | KRas wild type: % inh. (KRas wild type) | inhibition at 20 µM (KRas G12D mutant; [1]) [%] | inhibition at 20 µM (KRas G12D mutant; [2]) [%] | KRas G12C mutant + SOS: % inh. (KRas G12C mutant; with SOS (Table 7A)) | KRas G12C mutant: % inh. (KRas G12C mutant; without SOS (Table 7A)) | KRas Q61H mutant + SOS: % inh. (KRas Q61H mutant; with SOS (Table 7A)) | KRas Q61H mutant: % inh. (KRas Q61H mutant; without SOS (Table 7A)) | KRas wild type + SOS: % inh. (KRas wild type; with SOS (Table 7A)) | KRas wild type % inh. (KRas wild type) | inhibition at 20 µM (KRas G12D mutant; [3]) [%] | inhibition at 20 µM (KRas G12D mutant; [4]) [%]
COC1CCN(c2nc(-c3nccn3C)nc3sc(-c4cnn(C)c4)c(-c4ccccc4)c23)C1.Cl (stereo not shown) | D (76-100% inhibition) | C (51-75% inhibition) | D (76-100% inhibition) | B (26-50% inhibition) | D (76-100% inhibition) | B (26-50% inhibition) | 76 to 100 | 26 to 50 |  |  |  |  |  |  |  | 
CCN(CC)C(=O)c1nc(-c2nccn2C)nc(O)c1O [drawing 829] | A (1-25% inhibition) | A (1-25% inhibition) | B (26-50% inhibition) | B (26-50% inhibition) | A (1-25% inhibition) | B (26-50% inhibition) | 1 to 25 | 51 to 75 |  |  |  |  |  |  |  | 
COc1nc(-c2ccccn2)nc(Nc2cnn(C)c2)c1OC [drawing 794] | A (1-25% inhibition) | 0 (0% inhibition) | A (1-25% inhibition) | 0 (0% inhibition) | 0 (0% inhibition) | A (1-25% inhibition) | 0 | 0 |  |  |  |  |  |  |  | 
Cc1cn(C)c(-c2nc(O)c3scc(-c4ccccn4)c3n2)n1 [drawing 807] | C (51-75% inhibition) | C (51-75% inhibition) | C (51-75% inhibition) | A (1-25% inhibition) | B (26-50% inhibition) | D (76-100% inhibition) | 26 to 50 | 76 to 100 |  |  |  |  |  |  |  | 
COC(=O)c1nc(C2NCCN2C)nc(O)c1O (stereo not shown) | C (51-75% inhibition) | D (76-100% inhibition) | C (51-75% inhibition) | C (51-75% inhibition) | B (26-50% inhibition) | C (51-75% inhibition) | 26 to 50 | 51 to 75 |  |  |  |  |  |  |  | 
COc1cc(-c2sc3nc(-c4nccn4C)nc(N4CCC(OC)C4)c3c2-c2ccccc2)ccn1.Cl (stereo not shown) | D (76-100% inhibition) | C (51-75% inhibition) | C (51-75% inhibition) | C (51-75% inhibition) | C (51-75% inhibition) | C (51-75% inhibition) | 51 to 75 | 51 to 75 |  |  |  |  |  |  |  | 
COCCN(C)C(=O)c1nc(-c2ccccn2)nc(O)c1O [drawing 810] | A (1-25% inhibition) | C (51-75% inhibition) | A (1-25% inhibition) | A (1-25% inhibition) | A (1-25% inhibition) | B (26-50% inhibition) | 1 to 25 | 1 to 25 |  |  |  |  |  |  |  | 
COCCc1ccc(Oc2nc(-c3ccccn3)nc(O)c2OC)cc1 [drawing 814] | B (26-50% inhibition) | A (1-25% inhibition) | C (51-75% inhibition) | B (26-50% inhibition) | B (26-50% inhibition) | D (76-100% inhibition) | 26 to 50 | 51 to 75 |  |  |  |  |  |  |  | 
